Results: US20090155209A1, “NOVEL MACROCYCLIC INHIBITORS OF HEPATITIS C VIRUS REPLICATION” (priority 2007, published 2009)

Experiments:
NS3-NS4 [1] = molecular target: T1, NS3-NS4 (Hepatitis C virus genotype 1a, UniProt P27958); assay: NS3-NS4 activity, IC50 (Example 37, Table 8); format: biochemical
NS3-NS4 [2] = molecular target: T1, NS3-NS4; assay: cell-based; conditions: EC50, NS3-NS4 activity

T1 sequence (P27958 1027-1657): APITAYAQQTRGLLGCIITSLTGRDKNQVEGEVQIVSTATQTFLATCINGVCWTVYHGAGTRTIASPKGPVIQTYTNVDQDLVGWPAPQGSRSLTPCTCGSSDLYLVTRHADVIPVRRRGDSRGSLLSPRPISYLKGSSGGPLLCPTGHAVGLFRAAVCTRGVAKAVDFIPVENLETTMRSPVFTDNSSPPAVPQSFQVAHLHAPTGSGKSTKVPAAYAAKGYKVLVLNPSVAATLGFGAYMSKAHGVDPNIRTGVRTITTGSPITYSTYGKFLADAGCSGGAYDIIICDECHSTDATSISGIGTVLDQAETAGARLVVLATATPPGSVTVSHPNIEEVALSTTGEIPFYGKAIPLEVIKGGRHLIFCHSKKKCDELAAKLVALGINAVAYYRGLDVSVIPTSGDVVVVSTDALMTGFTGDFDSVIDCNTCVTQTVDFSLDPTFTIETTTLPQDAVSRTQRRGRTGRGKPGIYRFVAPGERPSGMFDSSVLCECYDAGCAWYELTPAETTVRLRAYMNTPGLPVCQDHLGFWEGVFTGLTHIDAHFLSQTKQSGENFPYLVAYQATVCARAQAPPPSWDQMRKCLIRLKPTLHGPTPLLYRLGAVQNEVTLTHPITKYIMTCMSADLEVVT
T1 sequence (P27958 1658-1711): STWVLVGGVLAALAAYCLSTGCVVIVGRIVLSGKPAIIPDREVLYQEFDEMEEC

| SMILES | IC50 (NS3-NS4 [1]) | EC50 (NS3-NS4 [2]) |
| --- | --- | --- |
| O=C(N[C@H]1CCCCC/C=C\[C@@H]2C[C@@]2(C(=O)NS(=O)(=O)C2CC2)NC(=O)[C@@H]2C[C@@H](OC(=O)N3Cc4cccc(Cl)c4C3)CN2C1=O)OC1CCOCC1 [Compound 411] | < 0.1 µM | < 0.1 µM |
| O=C(N[C@H]1CCCCC/C=C\[C@@H]2C[C@@]2(C(=O)NS(=O)(=O)C2CC2)NC(=O)[C@@H]2C[C@@H](OC(=O)N3Cc4cccc(F)c4C3)CN2C1=O)OC1CCOC1 (stereo partly shown) [Compound 412] | < 0.1 µM | < 0.1 µM |
| O=C(N[C@H]1CCCCC/C=C\[C@@H]2C[C@@]2(C(=O)NS(=O)(=O)C2CC2)NC(=O)[C@@H]2C[C@@H](OC(=O)N3Cc4cccc(F)c4C3)CN2C1=O)c1ccc(Cl)cc1 [Compound 413] | < 0.1 µM | < 0.1 µM |
| O=C1N[C@]2(C(=O)NS(=O)(=O)C3CC3)C[C@H]2/C=C\CCCCC[C@H](NC(=O)N2CCOCC2)C(=O)N2C[C@H](OC(=O)N3Cc4cccc(F)c4C3)C[C@@H]12 [Compound 414] | < 0.1 µM | 0.1 to 1 µM |
| O=C1N[C@]2(C(=O)NS(=O)(=O)C3CC3)C[C@H]2/C=C\CCCCC[C@H](NC(=O)N2CCCCC2)C(=O)N2C[C@H](OC(=O)N3Cc4cccc(F)c4C3)C[C@@H]12 [Compound 415] | < 0.1 µM | < 0.1 µM |
| O=C1N[C@]2(C(=O)NS(=O)(=O)C3CC3)C[C@H]2/C=C\CCCCC[C@H](NC(=O)N2CCC(F)(F)C2)C(=O)N2C[C@H](OC(=O)N3Cc4cccc(F)c4C3)C[C@@H]12 [Compound 416] | < 0.1 µM | 0.1 to 1 µM |
| O=C1N[C@]2(C(=O)NS(=O)(=O)C3CC3)C[C@H]2/C=C\CCCCC[C@H](NC(=O)N2CCC2)C(=O)N2C[C@H](OC(=O)N3Cc4cccc(F)c4C3)C[C@@H]12 [Compound 417] | < 0.1 µM | < 0.1 µM |
| O=C1N[C@]2(C(=O)NS(=O)(=O)C3CC3)C[C@H]2/C=C\CCCCC[C@H](NC(=O)N2CC(F)(F)C2)C(=O)N2C[C@H](OC(=O)N3Cc4cccc(F)c4C3)C[C@@H]12 [Compound 418] | < 0.1 µM | < 0.1 µM |
| O=C(C[C@H]1CCCCC/C=C\[C@@H]2C[C@@]2(C(=O)NS(=O)(=O)C2CC2)NC(=O)[C@@H]2C[C@@H](OC(=O)N3Cc4cccc(F)c4C3)CN2C1=O)Oc1ccccc1 [Compound 419] | < 0.1 µM | 0.1 to 1 µM |
| CN(Cc1ccccc1)C(=O)N[C@H]1CCCCC/C=C\[C@@H]2C[C@@]2(C(=O)NS(=O)(=O)C2CC2)NC(=O)[C@@H]2C[C@@H](OC(=O)N3Cc4cccc(F)c4C3)CN2C1=O [Compound 421] | < 0.1 µM | < 0.1 µM |
| O=C1N[C@]2(C(=O)NS(=O)(=O)C3CC3)C[C@H]2/C=C\CCCCC[C@H](NC(=O)N2Cc3ccccc3C2)C(=O)N2C[C@H](OC(=O)N3Cc4cccc(F)c4C3)C[C@@H]12 [Compound 422] | < 0.1 µM | 0.1 to 1 µM |
| CCN(C(=O)N[C@H]1CCCCC/C=C\[C@@H]2C[C@@]2(C(=O)NS(=O)(=O)C2CC2)NC(=O)[C@@H]2C[C@@H](OC(=O)N3Cc4cccc(F)c4C3)CN2C1=O)C(C)(C)C [Compound 423] | < 0.1 µM | < 0.1 µM |
| CN(C(=O)N[C@H]1CCCCC/C=C\[C@@H]2C[C@@]2(C(=O)NS(=O)(=O)C2CC2)NC(=O)[C@@H]2C[C@@H](OC(=O)N3Cc4cccc(Cl)c4C3)CN2C1=O)C(C)(C)C [Compound 424] | < 0.1 µM | < 0.1 µM |
| CN(C(=O)N[C@H]1CCCCC/C=C\[C@@H]2C[C@@]2(C(=O)NS(=O)(=O)C2CC2)NC(=O)[C@@H]2C[C@@H](OC(=O)N3Cc4cccc(F)c4C3)CN2C1=O)C1CCCC1 [Compound 425] | < 0.1 µM | < 0.1 µM |
| O=C(N[C@H]1CCCCC/C=C\[C@@H]2C[C@@]2(C(=O)NS(=O)(=O)C2CC2)NC(=O)[C@@H]2C[C@@H](OC(=O)N3Cc4cccc(F)c4C3)CN2C1=O)OC1CCC1 [Compound 427] | < 0.1 µM | < 0.1 µM |
| O=C(N[C@H]1CCCCC/C=C\[C@@H]2C[C@@]2(C(=O)NS(=O)(=O)C2CC2)NC(=O)[C@@H]2C[C@@H](OC(=O)N3Cc4cccc(F)c4C3)CN2C1=O)OC(C1CC1)C1CC1 [Compound 428] | < 0.1 µM | 0.1 to 1 µM |
| O=C(N[C@H]1CCCCC/C=C\[C@@H]2C[C@@]2(C(=O)NS(=O)(=O)C2CC2)NC(=O)[C@@H]2C[C@@H](OC(=O)N3Cc4cccc(F)c4C3)CN2C1=O)OCC1CCC1 [Compound 430] | < 0.1 µM | < 0.1 µM |
| O=C(N[C@H]1CCCCC/C=C\[C@@H]2C[C@@]2(C(=O)NS(=O)(=O)C2CC2)NC(=O)[C@@H]2C[C@@H](OC(=O)N3Cc4cccc(Cl)c4C3)CN2C1=O)OC1CCC1 [Compound 433] | < 0.1 µM | < 0.1 µM |
| O=C(N[C@H]1CCCCC/C=C\[C@@H]2C[C@@]2(C(=O)NS(=O)(=O)C2CC2)NC(=O)[C@@H]2C[C@@H](OC(=O)N3Cc4cccc(F)c4C3)CN2C1=O)OCC1CC1 [Compound 434] | < 0.1 µM | < 0.1 µM |

| SMILES | IC50 (NS3-NS4 [1]) | EC50 (NS3-NS4 [2]) |
| --- | --- | --- |
| CC1(COC(=O)N[C@H]2CCCCC/C=C\[C@@H]3C[C@@]3(C(=O)NS(=O)(=O)C3CC3)NC(=O)[C@@H]3C[C@@H](OC(=O)N4Cc5cccc(F)c5C4)CN3C2=O)CC1 [Compound 435] | < 0.1 µM | < 0.1 µM |
| CC(C)COC(=O)N[C@H]1CCCCC/C=C\[C@@H]2C[C@@]2(C(=O)NS(=O)(=O)C2CC2)NC(=O)[C@@H]2C[C@@H](OC(=O)N3Cc4cccc(F)c4C3)CN2C1=O [Compound 436] | < 0.1 µM | < 0.1 µM |
| CC(C)CN(C)C(=O)N[C@H]1CCCCC/C=C\[C@@H]2C[C@@]2(C(=O)NS(=O)(=O)C2CC2)NC(=O)[C@@H]2C[C@@H](OC(=O)N3Cc4cccc(F)c4C3)CN2C1=O [Compound 437] | < 0.1 µM | < 0.1 µM |
| CN(C(=O)N[C@H]1CCCCC/C=C\[C@@H]2C[C@@]2(C(=O)NS(=O)(=O)C2(C)CC2)NC(=O)[C@@H]2C[C@@H](OC(=O)N3Cc4cccc(F)c4C3)CN2C1=O)C(C)(C)C [Compound 440] | < 0.1 µM | < 0.1 µM |
| CN(C(=O)N[C@H]1CCCCC/C=C\[C@@H]2C[C@@]2(C(=O)NS(=O)(=O)C2(C)CC2)NC(=O)[C@@H]2C[C@@H](OC(=O)N3Cc4cccc(Cl)c4C3)CN2C1=O)C(C)(C)C [Compound 441] | < 0.1 µM | < 0.1 µM |
| CCC1(OC(=O)N[C@H]2CCCCC/C=C\[C@@H]3C[C@@]3(C(=O)NS(=O)(=O)C3CC3)NC(=O)[C@@H]3C[C@@H](OC(=O)N4Cc5cccc(F)c5C4)CN3C2=O)CC1 [Compound 442] | < 0.1 µM | < 0.1 µM |
| CC(C)(OC(=O)N[C@H]1CCCCC/C=C\[C@@H]2C[C@@]2(C(=O)NS(=O)(=O)C2CC2)NC(=O)[C@@H]2C[C@@H](OC(=O)N3Cc4cccc(F)c4C3)CN2C1=O)C1CC1 [Compound 443] | < 0.1 µM | < 0.1 µM |
| CC(C)(C)OC(=O)N[C@H]1CCCCC/C=C\[C@@H]2C[C@@]2(C(=O)NS(=O)(=O)C2(C)CC2)NC(=O)[C@@H]2C[C@@H](OC(=O)N3Cc4cccc(F)c4C3)CN2C1=O [Compound 444] | < 0.1 µM | < 0.1 µM |
| CC(C)(C)OC(=O)N[C@H]1CCCCC/C=C\[C@@H]2C[C@@]2(C(=O)NS(=O)(=O)C2(C)CC2)NC(=O)[C@@H]2C[C@@H](OC(=O)N3Cc4cccc(Cl)c4C3)CN2C1=O [Compound 445] | < 0.1 µM | < 0.1 µM |
| O=C(N[C@H]1CCCCC/C=C\[C@@H]2C[C@@]2(C(=O)NS(=O)(=O)C2CC2)NC(=O)[C@@H]2C[C@@H](OC(=O)N3Cc4cccc(F)c4C3)CN2C1=O)OC1(C2CC2)CC1 [Compound 446] | < 0.1 µM | < 0.1 µM |
| O=C1N[C@]2(C(=O)NS(=O)(=O)C3CC3)C[C@H]2/C=C\CCCCC[C@H](Nc2ccc(F)cc2)C(=O)N2C[C@H](OC(=O)N3Cc4cccc(F)c4C3)C[C@@H]12 [Compound 447, (2R,6S,13aS,14aR,16aS,Z)-14a-(cyclopropylsulfonylcarbamoyl)-6-(4-fluorophenylamino)-5,16-dioxo-1,2,3,5,6,7,8,9,10,11,13a,14,14a,15,16,16a-hexadecahydrocyclopropa[e]pyrrolo[1,2-a][1,4]diazacyclopentadecin-2-yl 4-fluoroisoindoline-2-carboxylate] | < 0.1 µM | < 0.1 µM |
| CC(C)(C)OC(=O)N[C@H]1CCCCC/C=C\[C@@H]2C[C@@]2(C(=O)NS(=O)(=O)c2ccccc2)NC(=O)[C@@H]2C[C@@H](OC(=O)N3Cc4cccc(F)c4C3)CN2C1=O [Compound 501] | < 0.1 µM | < 0.1 µM |
| CC(C)(C)OC(=O)N[C@H]1CCCCC/C=C\[C@@H]2C[C@@]2(C(=O)NS(=O)(=O)Cc2ccccc2F)NC(=O)[C@@H]2C[C@@H](OC(=O)N3Cc4cccc(F)c4C3)CN2C1=O [Compound 507] | < 0.1 µM | < 0.1 µM |
| CC(C)(C)OC(=O)N[C@H]1CCCCC/C=C\[C@@H]2C[C@@]2(C(=O)NS(=O)(=O)Cc2cccc(F)c2)NC(=O)[C@@H]2C[C@@H](OC(=O)N3Cc4cccc(F)c4C3)CN2C1=O [Compound 508] | < 0.1 µM | 0.1 to 1 µM |
| CC(C)(C)OC(=O)N[C@H]1CCCCC/C=C\[C@@H]2C[C@@]2(C(=O)NS(=O)(=O)Cc2ccc(F)cc2)NC(=O)[C@@H]2C[C@@H](OC(=O)N3Cc4cccc(F)c4C3)CN2C1=O [Compound 509] | < 0.1 µM | 0.1 to 1 µM |
| CC(C)(C)OC(=O)N[C@H]1CCCCC/C=C\[C@@H]2C[C@@]2(C(=O)NS(=O)(=O)Cc2ccccc2Cl)NC(=O)[C@@H]2C[C@@H](OC(=O)N3Cc4cccc(F)c4C3)CN2C1=O [Compound 510] | < 0.1 µM | < 0.1 µM |
| CC(C)(C)OC(=O)N[C@H]1CCCCC/C=C\[C@@H]2C[C@@]2(C(=O)NS(=O)(=O)Cc2cccc(Cl)c2)NC(=O)[C@@H]2C[C@@H](OC(=O)N3Cc4cccc(F)c4C3)CN2C1=O [Compound 511] | < 0.1 µM | < 0.1 µM |
| CC(C)(C)OC(=O)N[C@H]1CCCCC/C=C\[C@@H]2C[C@@]2(C(=O)NS(=O)(=O)Cc2ccc(Cl)cc2)NC(=O)[C@@H]2C[C@@H](OC(=O)N3Cc4cccc(F)c4C3)CN2C1=O [Compound 512] | < 0.1 µM | < 0.1 µM |
| Cc1cccc(CS(=O)(=O)NC(=O)[C@@]23C[C@H]2/C=C\CCCCC[C@H](NC(=O)OC(C)(C)C)C(=O)N2C[C@H](OC(=O)N4Cc5cccc(F)c5C4)C[C@H]2C(=O)N3)c1 [Compound 514] | < 0.1 µM | 0.1 to 1 µM |
